Source: patent US12527779B2, “Prostaglandin E2 (PGE2) EP4 receptor antagonists” (Domain Therapeutics, priority 2019, dated 2026)
Structures can show the parent of a compound that is named as a salt.

These compounds were tested against T1, human EP4 (hEP4) receptor (Homo sapiens, UniProt P35408) (assay: In vitro human EP4 functional antagonist activity using BRET biosensors (cAMP EPAC biosensor, TCS2510 stimulation)). Conditions: antagonist activity vs EC60 TCS2510, hEP4 in HEK-293 T cells.
T1 construct: expressed in transfected cells; host or cells: HEK-293 T cells, transient co-transfection with polyethylenimine
T1 sequence (P35408 whole entry): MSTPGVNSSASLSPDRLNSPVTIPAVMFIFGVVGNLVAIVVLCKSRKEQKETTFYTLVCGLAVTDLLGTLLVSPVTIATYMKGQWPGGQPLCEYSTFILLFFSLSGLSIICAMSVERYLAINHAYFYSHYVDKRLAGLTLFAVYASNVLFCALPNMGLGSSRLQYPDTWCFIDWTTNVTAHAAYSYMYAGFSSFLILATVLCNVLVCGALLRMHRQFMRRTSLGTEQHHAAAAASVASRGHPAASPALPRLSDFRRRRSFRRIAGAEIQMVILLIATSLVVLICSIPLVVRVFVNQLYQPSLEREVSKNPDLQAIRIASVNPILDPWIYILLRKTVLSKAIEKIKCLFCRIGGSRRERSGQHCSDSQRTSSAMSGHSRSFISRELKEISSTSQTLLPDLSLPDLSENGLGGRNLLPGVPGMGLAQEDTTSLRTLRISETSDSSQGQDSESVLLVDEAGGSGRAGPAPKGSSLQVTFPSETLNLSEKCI
Assay type: cell-based
How it was run: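 Antagonism measured as inhibition of EC60 TCS2510-induced cAMP BRET signal (EPAC luciferase/GFP sensor) in transiently hEP4-expressing HEK-293T cells, following 5 min compound preincubation and 10 min luminescence recording. Plates equilibrated 1 h at 22 °C in HEPES buffer; 10 concentrations over 4.5 logs, duplicate in two independent experiments, sigmoidal variable-slope IC50.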
`C[C@H](NC(=O)C1(c2ccc(OCc3ccccc3)cc2)CCCC1)c1ccc(C(=O)O)cc1` [Example 109, 4-[(1S)-1-[[1-(4-Benzyloxyphenyl)cyclopentanecarbonyl]amino]ethyl]benzoic acid] was tested, and the IC50 was < 100 nM.
For `C[C@H](NC(=O)C1(c2ccc(OCCC3CCCCC3)cc2)CCCC1)c1ccc(C(=O)O)cc1` [Example 110, 4-[(1S)-1-[[1-[4-(2-Cyclohexylethoxy)phenyl]cyclopentanecarbonyl]amino]ethyl]benzoic acid], the IC50 was < 100 nM.
For `C[C@H](NC(=O)C1(c2cccc(OCC3CCCCC3)c2)CCCC1)c1ccc(C(=O)O)cc1` [Example 112, 4-[(1S)-1-[[1-[3-(Cyclohexylmethoxy)phenyl]cyclopentanecarbonyl]amino]ethyl]benzoic acid], the IC50 was < 100 nM.
For `C[C@H](NC(=O)C1(c2cccc(OCc3ccccc3)c2)CCCC1)c1ccc(C(=O)O)cc1` [Example 113, 4-[(1S)-1-[[1-(3-Benzyloxyphenyl)cyclopentanecarbonyl]amino]ethyl]benzoic acid], the IC50 was < 100 nM.
`C[C@H](NC(=O)C1(c2cccc(OCC3CCCCC3)n2)CCOCC1)c1ccc(C(=O)O)cc1` [Example 115, 4-[(1S)-1-[[4-[6-(Cyclohexylmethoxy)-2-pyridyl]tetrahydropyran-4-carbonyl]amino]ethyl]benzoic acid] was tested, and the IC50 was < 1000 nM.
In the case of `C[C@H](NC(=O)C1(c2ccnc(OCC3CCCCC3)c2)CCOCC1)c1ccc(C(=O)O)cc1` [Example 116, 4-[(1S)-1-[[4-[2-(Cyclohexylmethoxy)-4-pyridyl]tetrahydropyran-4-carbonyl]amino]ethyl]benzoic acid], the IC50 is reported as < 1000 nM.
In the case of `C[C@H](NC(=O)C1(c2cc(OCC3CCCCC3)ccn2)CCOCC1)c1ccc(C(=O)O)cc1` [Example 117, 4-[(1S)-1-[[4-[4-(Cyclohexylmethoxy)-2-pyridyl]tetrahydropyran-4-carbonyl]amino]ethyl]benzoic acid], the IC50 is reported as < 1000 nM.
In the case of `C[C@H](NC(=O)C1(c2ccc(OCC3CCCCC3)cn2)CCOCC1)c1ccc(C(=O)O)cc1` [Example 119, 4-[(1S)-1-[[4-[5-(Cyclohexylmethoxy)-2-pyridyl]tetrahydropyran-4-carbonyl]amino]ethyl]benzoic acid], the IC50 is reported as < 1000 nM.
In the case of `C[C@H](NC(=O)C1(c2ccc(OCCC3CCCCC3)cn2)CCOCC1)c1ccc(C(=O)O)cc1` [Example 120, 4-[(1S)-1-[[4-[5-(2-Cyclohexylethoxy)-2-pyridyl]tetrahydropyran-4-carbonyl]amino]ethyl]benzoic acid], the IC50 is reported as < 1000 nM.
For `C[C@H](NC(=O)C1(c2ccc(OCC3CCCCC3)nc2)CCOCC1)c1ccc(C(=O)O)cc1` [Example 121, 4-[(1S)-1-[[4-[6-(Cyclohexylmethoxy)-3-pyridyl]tetrahydropyran-4-carbonyl]amino]ethyl]benzoic acid], the IC50 was < 1000 nM.
`C[C@H](NC(=O)C1(c2ccc(OCCC3CCCCC3)nc2)CCOCC1)c1ccc(C(=O)O)cc1` [Example 122, 4-[(1S)-1-[[4-[6-(2-Cyclohexylethoxy)-3-pyridyl]tetrahydropyran-4-carbonyl]amino]ethyl]benzoic acid] was tested, and the IC50 was < 1000 nM.
`C[C@H](NC(=O)C1(c2cccc(OCC3CCCCC3)n2)CCCC1)c1ccc(C(=O)O)cc1` [Example 123, 4-[(1S)-1-[[1-[6-(Cyclohexylmethoxy)-2-pyridyl]cyclopentanecarbonyl]amino]ethyl]benzoic acid] was tested, and the IC50 was < 1000 nM.
In the case of `C[C@H](NC(=O)C1(c2ccnc(OCC3CCCCC3)c2)CCCC1)c1ccc(C(=O)O)cc1` [Example 124, 4-[(1S)-1-[[1-[2-(Cyclohexylmethoxy)-4-pyridyl]cyclopentanecarbonyl]amino]ethyl]benzoic acid], the IC50 is reported as < 100 nM.
`C[C@H](NC(=O)C1(c2ccc(OCC3CCCCC3)cn2)CCCC1)c1ccc(C(=O)O)cc1` [Example 127, 4-[(1S)-1-[[1-[5-(Cyclohexylmethoxy)-2-pyridyl]cyclopentanecarbonyl]amino]ethyl]benzoic acid] was tested, and the IC50 was < 1000 nM.
In the case of `C[C@H](NC(=O)C1(c2ccc(OCCC3CCCCC3)cn2)CCCC1)c1ccc(C(=O)O)cc1` [Example 128, 4-[(1S)-1-[[1-[5-(2-Cyclohexylethoxy)-2-pyridyl]cyclopentanecarbonyl]amino]ethyl]benzoic acid], the IC50 is reported as < 1000 nM.
With `C[C@H](NC(=O)C1(c2ccc(OCC3CCCCC3)nc2)CCCC1)c1ccc(C(=O)O)cc1` [Example 129, 4-[(1S)-1-[[1-[6-(Cyclohexylmethoxy)-3-pyridyl]cyclopentanecarbonyl]amino]ethyl]benzoic acid] the IC50 was < 100 nM.
In the case of `C[C@H](NC(=O)C1(c2ccc(OCCC3CCCCC3)nc2)CCCC1)c1ccc(C(=O)O)cc1` [Example 130, 4-[(1S)-1-[[1-[6-(2-Cyclohexylethoxy)-3-pyridyl]cyclopentanecarbonyl]amino]ethyl]benzoic acid], the IC50 is reported as < 1000 nM.
For `C[C@H](NC(=O)C1(N2CCC[C@H](Oc3cccc(Cl)c3)C2)CCOCC1)c1ccc(C(=O)O)cc1` [Example 134, 4-[(1S)-1-[[4-[(3S)-3-(3-Chlorophenoxy)-1-piperidyl]tetrahydropyran-4-carbonyl]amino]ethyl]benzoic acid, hydrochloride], the IC50 was < 1000 nM.
With `O=C(O)c1ccc(C2(NC(=O)C3(N4CCC[C@H](Oc5cccc(Cl)c5)C4)CCOCC3)CC2)cc1` [Example 135, 4-[1-[[4-[(3S)-3-(3-Chlorophenoxy)-1-piperidyl]tetrahydropyran-4-carbonyl]amino]cyclopropyl]benzoic acid, hydrochloride] the IC50 was < 1000 nM.
In the case of `C[C@H](NC(=O)C1(N2CCC[C@@H](Oc3cccc(Cl)c3)C2)CCOCC1)c1ccc(C(=O)O)cc1` [Example 136, 4-[(1S)-1-[[4-[(3R)-3-(3-Chlorophenoxy)-1-piperidyl]tetrahydropyran-4-carbonyl]amino]ethyl]benzoic acid, hydrochloride], the IC50 is reported as < 100 nM.
With `O=C(O)c1ccc(C2(NC(=O)C3(N4CCC[C@@H](Oc5cccc(Cl)c5)C4)CCOCC3)CC2)cc1` [Example 137, 4-[1-[[4-[(3R)-3-(3-Chlorophenoxy)-1-piperidyl]tetrahydropyran-4-carbonyl]amino]cyclopropyl]benzoic acid, hydrochloride] the IC50 was < 100 nM.
In the case of `C[C@H](NC(=O)C1(N2CC[C@H](Oc3cccc(Cl)c3)C2)CCOCC1)c1ccc(C(=O)O)cc1` [Example 138, 4-[(1S)-1-[[4-[(3S)-3-(3-Chlorophenoxy)pyrrolidin-1-yl]tetrahydropyran-4-carbonyl]amino]ethyl]benzoic acid, hydrochloride], the IC50 is reported as < 1000 nM.
For `O=C(O)c1ccc(C2(NC(=O)C3(N4CC[C@H](Oc5cccc(Cl)c5)C4)CCOCC3)CC2)cc1` [Example 139, 4-[1-[[4-[(3S)-3-(3-Chlorophenoxy)pyrrolidin-1-yl]tetrahydropyran-4-carbonyl]amino]cyclopropyl]benzoic acid, hydrochloride], the IC50 was < 1000 nM.
With `C[C@H](NC(=O)C1(N2CC[C@@H](Oc3cccc(Cl)c3)C2)CCOCC1)c1ccc(C(=O)O)cc1` [Example 140, 4-[(1S)-1-[[4-[(3R)-3-(3-Chlorophenoxy)pyrrolidin-1-yl]tetrahydropyran-4-carbonyl]amino]ethyl]benzoic acid, hydrochloride] the IC50 was < 100 nM.
`O=C(O)c1ccc(C2(NC(=O)C3(N4CC[C@@H](Oc5cccc(Cl)c5)C4)CCOCC3)CC2)cc1` [Example 141, 4-[1-[[4-[(3R)-3-(3-Chlorophenoxy)pyrrolidin-1-yl]tetrahydropyran-4-carbonyl]amino]cyclopropyl]benzoic acid, hydrochloride] was tested, and the IC50 was < 100 nM.
